Results taken from PMC13594947 (Journal of Molecular and Cellular Cardiology Plus, 2026).
Read-outs that look alike come from different tables or passages of the source.

Legend:
PRMT5 = assay: Immunoblot of global SDMA in neonatal rat ventricular cardiomyocytes; type: cell-based; details: concentrations up to 50 μM
murine heart [1] = assay: Short-term application (5 consecutive days) in mice: transthoracic echocardiography, survival; type: in vivo
Experimental: (§1) All animal studies were approved by and conducted in accordance with the German Animal Welfare Act and approved by the Animal Experiment Review Board of the Regierungspräsidium Karlsruhe, Germany. The study refers to the application G210-19. C57BL/6N mice were purchased from Charles River at the age of 12 weeks. Male and female mice were included in an equal ratio.
(§2) The compound (Medchemexpress) was dissolved in 5% DMSO, 40% PEG300, 5% Tween-80 in isotonic saline solution and administered either via oral gavage or by injection into the tail vein. Control animals received the same solution without compound.
(§3) Cardiac performance was determined by transthoracic echocardiography. Measurements on conscious mice were performed using a Vevo® 2100 system with a 55 MHz transducer (Visualsonics). Ejection fraction (EF) was averaged over at least 5 contraction cycles. The experimenter was blinded for genotype and treatment.

[2] = Single-dose pharmacokinetics in mice: tissue levels (heart, liver, kidney, skeletal muscle) by UPLC-MS/MS; type: in vivo; details: for concentration at 1 h: po, 100 mg/kg, oral 100 mg/kg, peak (1 h)
Experimental: (§4) All animal studies were approved by and conducted in accordance with the German Animal Welfare Act and approved by the Animal Experiment Review Board of the Regierungspräsidium Karlsruhe, Germany. The study refers to the application […]-19. C57BL/6N mice were purchased from Charles River at the age of 12 weeks. Male and female mice were included in an equal ratio. The compound (Medchemexpress) was dissolved in 5% DMSO, 40% PEG300, 5% Tween-80 in isotonic saline solution and administered either via oral gavage or by injection into the tail vein. Control animals received the same solution without compound. […] Tissue samples were homogenized in water using a Bead Ruptor 4 homogenizer (Omni International Inc, USA) for at least 120 s with ceramic beads. After protein precipitation with acetonitrile, plasma and tissue sample extracts were measured using an UPLC-MS/MS (Waters, USA) setup including an Acquity UPLC I-Class® coupled with a Xevo TQ-S triple stage quadrupole mass spectrometer (Waters), which featured a heated ESI source (Z-Spray in the positive MRM mode). Gradient chromatography was conducted using an ACQUITY UPLC BEH C18 column (130 Å, 1.7 μm, 2.1 mm × 50 mm; Waters, USA) consisting of eluent A (95/5 H2O/ACN with 0.1% formic acid) and eluent B (ACN with 0.1% formic acid).

[3] = Single-dose pharmacokinetics in mice: plasma levels by UPLC-MS/MS; type: in vivo
Experimental: as §4

murine heart [4] = assay: PRMT5i combined with O-ring aortic banding (ORAB)/sham surgery: echocardiography; type: in vivo; details: mice, 56 days combined with ORAB/sham surgery
Experimental: The compound (Medchemexpress) was dissolved in 5% DMSO, 40% PEG300, 5% Tween-80 in isotonic saline solution and administered either via oral gavage or by injection into the tail vein. Control animals received the same solution without compound. Cardiac performance was determined by transthoracic echocardiography. Measurements on conscious mice were performed using a Vevo® 2100 system with a 55 MHz transducer (Visualsonics). Ejection fraction (EF) was averaged over at least 5 contraction cycles. The experimenter was blinded for genotype and treatment.

murine heart [5] = assay: Long-term application (8 weeks) in mice: transthoracic echocardiography; type: in vivo; details: over the course of 8 weeks
Experimental: as §1, §2, §3

hematopoiesis [6] = assay: PRMT5i combined with ORAB/sham surgery: blood cell parameters; type: in vivo; details: mice, chronic PRMT5i with ORAB/sham
Experimental: The surgical procedure was essentially performed as previously described^20. In brief, animals were narcotized using Isoflurane. The thorax was opened and a nitrile O-ring (inner diameter 0.020 inch) was closed around the aorta ascendens in order to enhance pressure load of the left ventricle. Perisurgically and for the following days, analgesia was maintained via buprenorphine. Hematological parameters were analyzed using an automated hematology analyzer ([…] ABC, ABX Diagnostics, France) according to manufacturer's instructions. Whole blood samples were collected into EDTA-coated tubes to prevent coagulation. The following parameters were determined: red blood cell count (RBC), white blood cell count (WBC), hemoglobin concentration (HGB), mean corpuscular volume (MCV), mean corpuscular hemoglobin (MCH), platelet count (PLT), and differential leukocyte counts.

murine heart [7] = assay: Short-term application in mice: histology of cardiac cross-sections; type: in vivo; details: oral once or twice a day, 5 consecutive days
Experimental: The compound (Medchemexpress) was dissolved in 5% DMSO, 40% PEG300, 5% Tween-80 in isotonic saline solution and administered either via oral gavage or by injection into the tail vein. Control animals received the same solution without compound. Heart cross-sections (2-chamber view) were fixed in Roti Histofix (Roth, P087.5) and dehydrated in ethanol. After paraffin embedding, slices of 6µm thickness were cut and used for Hematoxylin/Eosin and Masson’s trichrome staining. Imaging was performed on a Zeiss Axioscan 7. For analysis, 10 snapshots of fixed dimension were taken per animal and the percentage of fibrotic tissue was assessed based on color threshold using ImageJ.

mice [8] = assay: PRMT5i combined with ORAB/sham surgery: mortality; type: in vivo; details: PRMT5i-treated mice undergoing ORAB
Experimental: as §2
(§5) The surgical procedure was essentially performed as previously described^20. In brief, animals were narcotized using Isoflurane. The thorax was opened and a nitrile O-ring (inner diameter 0.020 inch) was closed around the aorta ascendens in order to enhance pressure load of the left ventricle. Perisurgically and for the following days, analgesia was maintained via buprenorphine.

Myh7 and Nppa expression = assay: PRMT5i combined with ORAB/sham surgery: quantitative PCR of Myh7 and Nppa in left-ventricular tissue; type: in vivo; details: mice
Experimental: as §5
1µg of RNA was reverse transcribed (PrimaDIRECT 2x PCR Master Mix Kit (Steinbrenner)) and cDNA was subjected to quantitative PCR on a LightCycler480 (Roche) using SYBR Green Master Mix (Thermo Fisher).
mmMyh7: • For: 5’ AGCATTCTCCTGCTGTTTCCT 3’ • Rev: 5’ CCAGGCCTGTAGAAGAGCTG 3’
mmNppa: • For: 5’ ATTGACAGGATTGGAGCCCAGAGT 3’ • Rev: 5’ TGACACACCACAAGGGCTTAGGAT 3’
mmGapdh: • For: 5’ GGTGGACCTCATGGCCTACA 3’ • Rev: 5’ CTCTCTTGCTCAGTGTCCTTGCT 3’

hematopoiesis [9] = assay: Long-term application in mice: blood cell parameters; type: in vivo; details: 8 weeks
Experimental: Hematological parameters were analyzed using an automated hematology analyzer ([…] ABC, ABX Diagnostics, France) according to manufacturer's instructions. Whole blood samples were collected into EDTA-coated tubes to prevent coagulation. The following parameters were determined: red blood cell count (RBC), white blood cell count (WBC), hemoglobin concentration (HGB), mean corpuscular volume (MCV), mean corpuscular hemoglobin (MCH), platelet count (PLT), and differential leukocyte counts.

patients = details: ref [12], [18]; cited from earlier work
murine heart [10] = assay: PRMT5i combined with ORAB/sham surgery: histology (fibrosis); type: in vivo; details: mice
Excerpt: The surgical procedure was essentially performed as previously described^20. In brief, animals were narcotized using Isoflurane. The thorax was opened and a nitrile O-ring (inner diameter 0.020 inch) was closed around the aorta ascendens in order to enhance pressure load of the left ventricle. Perisurgically and for the following days, analgesia was maintained via buprenorphine. Heart cross-sections (2-chamber view) were fixed in Roti Histofix (Roth, P087.5) and dehydrated in ethanol. After paraffin embedding, slices of 6µm thickness were cut and used for Hematoxylin/Eosin and Masson’s trichrome staining. Imaging was performed on a Zeiss Axioscan 7. For analysis, 10 snapshots of fixed dimension were taken per animal and the percentage of fibrotic tissue was assessed based on color threshold using ImageJ.

HEK293 cells = assay: PRMT5i-associated cytotoxicity, CellTiter 96 Cell Proliferation Assay; type: cell-based; details: dosage escalation beyond 10 μM, 48 h exposure
Experimental: HEK293 cells (ATCC) were cultured in DMEM (PanBiotech) supplemented with 10% FCS (Thermo Fisher) and 1% penicillin-streptomycin (Thermo Fisher) and incubated at standard conditions. Cells between passage 5 and 18 were used for experiments. Neonatal rat ventricular myocytes (NRVMs) were isolated from 24h-to-72h old rats using the Neonatal Heart Dissociation Kit (Miltenyi Biotec) according to manufacturer’s recommendations, cultured in DMEM supplemented with 10% FCS and 1% penicillin-streptomycin and incubated at standard conditions. EPZ015666 and GSK3326595 (MedChemExpress) were dissolved in DMSO and added into the culture medium at indicated dosages. For protein analysis, cells were treated for 96 h including a medium exchange after 48 h. Control cells were treated with DMSO accordingly. Single values in the analysis represent individually treated wells (technical replicates) and experiments were reproduced at least three times using independent cell passages or preparations. […] The treatment was performed in individual wells and absorbance at 570 nm was recorded on an EnSight Plate reader (PerkinElmer).

mice [11] = assay: Long-term application in mice: body weight, mortality, heart and lung weight to tibia length; type: in vivo; details: 8 weeks
Experimental: as §1, §2

murine heart [12] = assay: Long-term application in mice: Masson Trichrome histology (fibrosis); type: in vivo; details: 8 weeks
Experimental: Heart cross-sections (2-chamber view) were fixed in Roti Histofix (Roth, P087.5) and dehydrated in ethanol. After paraffin embedding, slices of 6µm thickness were cut and used for Hematoxylin/Eosin and Masson’s trichrome staining. Imaging was performed on a Zeiss Axioscan 7. For analysis, 10 snapshots of fixed dimension were taken per animal and the percentage of fibrotic tissue was assessed based on color threshold using ImageJ.

Q: Which “global SDMA” value (PRMT5) does the source give for `O=C(NC[C@H](O)CN1CCc2ccccc2C1)c1cc(NC2COC2)ncn1` [EPZ015666] here?
A: did not detect a significant reduction of global SDMA

Q: Which “ejection fraction” value (murine heart [1]; oral once or twice a day, 5 consecutive days) does the source give for `CC(=O)N1CCC(Nc2cc(C(=O)NC[C@H](O)CN3CCc4ccccc4C3)ncn2)CC1` [GSK3326595] here?
A: did not detect changes in ejection fraction

Q: What about the “death during the experiment” value (murine heart [1]; short-term application, 10 mg/kg) of the same compound?
A: one animal (10 mg/kg) that died during the course of the experiment

Q: And the “heart targeted by % dosage on average” value ([2]; as worded)?
A: 19.0%

Q: And the “muscle tissue targeted by % dosage on average” value ([2]; as worded)?
A: 26.0%

Q: What about the “heart targeted by % dosage on average (versus liver)” value ([2]; as worded in b7, first of 'respectively') of the same compound?
A: 26.0%

Q: What about the “heart targeted by % dosage on average (versus kidney)” value ([2]; as worded in b7, second of 'respectively') of the same compound?
A: 19.0%

Q: And the concentration at 1 h ([2]; both sexes, C57BL/6N, mouse, heart, read-out: absolute inhibitor concentration in heart)?
A: 82700 ng/g

Q: And the Tmax ([2]; both sexes, C57BL/6N, mouse, liver, kidney, heart, skeletal muscle, other: oral (gavage) and intravenous (tail vein), both arms, single dose, read-out: time of maximum levels in liver, kidney, heart and skeletal muscle)?
A: 1 h

Q: What about the concentration at 1 h ([2]; both sexes, C57BL/6N, mouse, skeletal muscle, read-out: absolute inhibitor concentration in skeletal muscle) of the same compound?
A: 172000 ng/g

Q: And the half-life ([3]; both sexes, C57BL/6N, mouse, plasma)?
A: 2.5 h

Q: What about the bioavailability ([3]; both sexes, C57BL/6N, mouse, plasma, po) of the same compound?
A: 5.7%

Q: What about the “decline of plasma concentration on average” value ([3]; over a course of 12 h) of the same compound?
A: > 90%

Q: And the “time of plasma peak concentration post application” value ([3]; single dose oral gavage or intravenous)?
A: 1 h

Q: What about the longitudinal echocardiographic analysis (murine heart [4]) of the same compound?
A: no statistical significance was found for any of the indicated time points in any group comparison

Q: What about the systolic cardiac function (murine heart [5]) of the same compound?
A: preserved

Q: What about the “hematology: anemia, leucopenia” value (hematopoiesis [6]) of the same compound?
A: significant normocytic normochromic anemia and leucopenia

Q: What about the platelets (hematopoiesis [6]) of the same compound?
A: not affected

Q: What about the “tissue morphology / fibrotic remodeling” value (murine heart [7]) of the same compound?
A: no immediate detrimental effects or fibrotic remodeling

Q: What about the mortality (mice [8]) of the same compound?
A: delayed mortality starting 2 weeks post-surgery

Q: What about the “expression of cardiac stress markers Myh7 and Nppa” value (Myh7 and Nppa expression) of the same compound?
A: stable expression of classical cardiac stress markers such as Myh7 and Nppa

Q: And the “hematology: anemia, lymphopenia” value (hematopoiesis [9])?
A: significant anemia and lymphopenia

Q: And the platelets counts (hematopoiesis [9])?
A: unaltered

Q: What about the “adverse cardiovascular events in clinical studies” value (patients) of the same compound?
A: manifested adverse cardiovascular events were not described

Q: What about the “fibrotic remodeling (histology)” value (murine heart [10]) of the same compound?
A: no significant fibrotic remodeling

Q: What about the cytotoxicity (HEK293 cells) of the same compound?
A: significantly less cytotoxicity as compared to EPZ015666

Q: And the “heart weight-to-tibia length and lung weight-to-tibia length” value (mice [11])?
A: did not reveal PRMT5i-induced alterations

Q: What about the “tolerability (body weight, mortality)” value (mice [11]) of the same compound?
A: well tolerated as determined by stable body weight without treatment-associated mortality

Q: What about the “myocardial fibrosis (Masson Trichrome staining)” value (murine heart [12]) of the same compound?
A: remained stable
